Like-named read-outs stand apart in the source and are kept apart here.
Tested on: zebrafish embryos
Assay type: in vivo
Settings: for Mild % / Mild dorsalization, number of embryos / Moderate % / Moderate dorsalization, number of embryos / Normal % / Normal, number of embryos / Severe % / Severe dorsalization, number of embryos / % Mild / % Moderate-Severe / Mild, number of embryos / Moderate-Severe, number of embryos / Total % Dorsalized: scored at 48 hpf
[1] = 10 μM, continuous exposure from 2 hpf
[2] = 10 μM, continuous exposure from 4 hpf
[3] = 10 μM, continuous exposure from 6 hpf
[4] = 10 μM, continuous exposure from 8 hpf
[5] = 10 μM, continuous exposure from 10 hpf
[6] = 10 μM, interval exposure 2-4 hpf
[7] = 10 μM, interval exposure 2-6 hpf
[8] = 10 μM, interval exposure 2-8 hpf
[9] = 10 μM, interval exposure 4-8 hpf
[10] = 10 μM, interval exposure 6-8 hpf
[11] = dorsomorphin 10 μM, treatment at 3 hpf

SMILES: c1cc(-c2cnn3cc(-c4ccc(OCCN5CCCCC5)cc4)cnc23)ccn1 [Compound C/Dorsomorphin]
- toxicity (10 μM): No toxicity was observed
- Mild % [1]: 0%
- Mild dorsalization, number of embryos [1]: 0
- Moderate % [1]: 0%
- Moderate dorsalization, number of embryos [1]: 0
- Normal % [1]: 0%
- Normal, number of embryos [1]: 0
- Severe % [1]: 100%
- Severe dorsalization, number of embryos [1]: 20
- Mild % [2]: 0%
- Mild dorsalization, number of embryos [2]: 0
- Moderate % [2]: 100%
- Moderate dorsalization, number of embryos [2]: 19
- Normal % [2]: 0%
- Normal, number of embryos [2]: 0
- Severe % [2]: 0%
- Severe dorsalization, number of embryos [2]: 0
- Mild % [3]: 22%
- Mild dorsalization, number of embryos [3]: 4
- Moderate % [3]: 78%
- Moderate dorsalization, number of embryos [3]: 14
- Normal % [3]: 0%
- Normal, number of embryos [3]: 0
- Severe % [3]: 0%
- Severe dorsalization, number of embryos [3]: 0
- Mild % [4]: 85%
- Mild dorsalization, number of embryos [4]: 17
- Moderate dorsalization, number of embryos [4]: 0
- Normal, number of embryos [4]: 3
- Severe % [4]: 0%
- Severe dorsalization, number of embryos [4]: 0
- Mild % [5]: 0%
- Mild dorsalization, number of embryos [5]: 0
- Moderate % [5]: 0%
- Moderate dorsalization, number of embryos [5]: 0
- Normal % [5]: 100%
- Normal, number of embryos [5]: 20
- Severe % [5]: 0%
- Severe dorsalization, number of embryos [5]: 0
- dorsalization phenotype (10 μM, continuous from 2 hpf): severe dorsalization with high penetrance
- dorsalization phenotype (10 μM, exposure from 4-8 and 6-8 hpf): mild to moderate dorsalization
- Mild % [6]: 10%
- Mild dorsalization, number of embryos [6]: 2
- Moderate % [6]: 90%
- Moderate dorsalization, number of embryos [6]: 18
- Normal % [6]: 0%
- Normal, number of embryos [6]: 0
- Severe dorsalization, number of embryos [6]: 0
- Mild % [7]: 17%
- Mild dorsalization, number of embryos [7]: 3
- Moderate % [7]: 44%
- Moderate dorsalization, number of embryos [7]: 8
- Normal % [7]: 0%
- Normal, number of embryos [7]: 0
- Severe % [7]: 39%
- Severe dorsalization, number of embryos [7]: 7
- Mild % [8]: 0%
- Mild dorsalization, number of embryos [8]: 0
- Moderate % [8]: 0%
- Moderate dorsalization, number of embryos [8]: 0
- Normal % [8]: 0%
- Normal, number of embryos [8]: 0
- Severe % [8]: 100%
- Severe dorsalization, number of embryos [8]: 20
- Mild % [9]: 65%
- Mild dorsalization, number of embryos [9]: 15
- Moderate % [9]: 35%
- Normal % [9]: 0%
- Normal, number of embryos [9]: 0
- Severe % [9]: 0%
- Severe dorsalization, number of embryos [9]: 0
- Mild % [10]: 95%
- Mild dorsalization, number of embryos [10]: 19
- Moderate % [10]: 5%
- Moderate dorsalization, number of embryos [10]: 1
- Normal % [10]: 0%
- Normal, number of embryos [10]: 0
- Severe % [10]: 0%
- Severe dorsalization, number of embryos [10]: 0
- dorsalization phenotype (10 μM, treated at 2-4 hpf): severe dorsalization defects
- dorsalization phenotype (10 μM, treated at 6-8 hpf): mild dorsalization
- dorsalization phenotype (10 μM, treatment at 10 hpf and beyond): did not induce dorsalization
- nonspecific toxicity (5-20 uM): absence of other nonspecific toxicity
- dorsalization phenotype (5 to 10 μM from 3 hpf): progressively more severe dorsalization in a progressively higher percentage of embryos
- dorsalization phenotype (10 (unit not given) from 3 hpf): moderate or severe dorsalization in nearly all embryos examined
- % Mild (DM 0.2 μM from 3 hpf): 0%
- % Moderate-Severe (DM 0.2 μM from 3 hpf): 0%
- Mild, number of embryos (DM 0.2 μM from 3 hpf): 0
- Moderate-Severe, number of embryos (DM 0.2 μM from 3 hpf): 0
- Normal, number of embryos (DM 0.2 μM from 3 hpf): 60
- Total % Dorsalized (DM 0.2 μM from 3 hpf): 0%
- % Mild (DM 0.5 μM from 3 hpf): 0%
- % Moderate-Severe (DM 0.5 μM from 3 hpf): 0%
- Mild, number of embryos (DM 0.5 μM from 3 hpf): 0
- Moderate-Severe, number of embryos (DM 0.5 μM from 3 hpf): 0
- Normal, number of embryos (DM 0.5 μM from 3 hpf): 59
- Total % Dorsalized (DM 0.5 μM from 3 hpf): 0%
- % Mild (DM 1 μM from 3 hpf): 0%
- % Moderate-Severe (DM 1 μM from 3 hpf): 0%
- Mild, number of embryos (DM 1 μM from 3 hpf): 0
- Moderate-Severe, number of embryos (DM 1 μM from 3 hpf): 0
- Normal, number of embryos (DM 1 μM from 3 hpf): 60
- Total % Dorsalized (DM 1 μM from 3 hpf): 0%
- % Mild (DM 2 μM from 3 hpf): 0%
- % Moderate-Severe (DM 2 μM from 3 hpf): 0%
- Mild, number of embryos (DM 2 μM from 3 hpf): 0
- Normal, number of embryos (DM 2 μM from 3 hpf): 60
- Total % Dorsalized (DM 2 μM from 3 hpf): 0%
- % Mild (DM 5 μM from 3 hpf): 19%
- % Moderate-Severe (DM 5 μM from 3 hpf): 0%
- Mild, number of embryos (DM 5 μM from 3 hpf): 11
- Moderate-Severe, number of embryos (DM 5 μM from 3 hpf): 0
- Normal, number of embryos (DM 5 μM from 3 hpf): 48
- Total % Dorsalized (DM 5 μM from 3 hpf): 19%
- % Mild (DM 7.5 μM from 3 hpf): 58%
- % Moderate-Severe (DM 7.5 μM from 3 hpf): 42%
- Mild, number of embryos (DM 7.5 μM from 3 hpf): 35
- Moderate-Severe, number of embryos (DM 7.5 μM from 3 hpf): 25
- Normal, number of embryos (DM 7.5 μM from 3 hpf): 0
- Total % Dorsalized (DM 7.5 μM from 3 hpf): 100%
- % Mild (DM 10 μM from 3 hpf): 3%
- % Moderate-Severe (DM 10 μM from 3 hpf): 98%
- Mild, number of embryos (DM 10 μM from 3 hpf): 1
- Moderate-Severe, number of embryos (DM 10 μM from 3 hpf): 39
- Normal, number of embryos (DM 10 μM from 3 hpf): 0
- Total % Dorsalized (DM 10 μM from 3 hpf): 100%
- % Dorsalized [11]: 100%
- Dorsalized, number of embryos [11]: 26
- Early lethality, number of embryos [11]: 3
- Total survivors [11]: 26
- dorsalization and toxicity (same conditions as C75 (3 hpf)): induced dorsalization with high penetrance and minimal toxicity
- dorsalization phenotype (≦2 μM from 3 hpf): did not elicit dorsalization
- cyclopia (phenotype of defective TGF-β signaling) (≧5 μM at ≦8 hpf): did not result in cyclopia

Reference: patent US20100093760A1, “METHODS FOR IDENTIFYING COMPOUNDS THAT MODULATE CELL SIGNALING AND METHODS EMPLOYING SUCH COMPOUNDS” (The General Hospital Corporation, priority 2006, published 2010)
